System: spontaneous SWDs
Experiment: Spontaneous spike-wave discharges (SWDs) in Long-Evans rats
Assay type: in vivo
Conditions: 0.5 ml, 28 mg/kg, i.p.; vs saline; n=8
Procedure: All rats were kept in a sound-attenuated room under a 12:12 hour light-dark cycle (07:00-19:00 lights on) with food and water provided ad libitum. The experimental procedures were reviewed and approved by the Institutional Animal Care and Use Committee. Briefly, the recording electrodes were implanted under pentobarbital anesthesia (60 mg/kg, i.p.). Subsequently, the rat was placed in a standard stereotaxic apparatus. In total, six stainless steel screws were driven bilaterally into the skull overlying the frontal (A +2.0, L 2.0 with reference to the bregma) and occipital (A −6.0, L 2.0) regions of the cortex to record cortical field potentials. A ground electrode was implanted 2 mm caudal to lambda. Dental cement was applied to fasten the connection socket to the surface of the skull. Following suturing to complete the surgery, animals were given an antibiotic (chlortetracycline) and housed individually in cages for recovery. […] In this preliminary animal test, we compared effect among saline, ethosuximide (ESM), ESM-loaded nanoparticles (ESM-Fe3O4@SiO2) and ESM-containing chip (ESM-Chip) in spontaneous SWDs of Long-Evans rats. […] In this experiment, we recorded 1-hour spontaneous brain activity before the treatment (baseline) and another 1-hour spontaneous brain activity 30 minutes after the treatment. […]

SMILES: CCC1(C)CC(=O)NC1=O (centres unmarked) [ESM, ethosuximide]
- SWD number: significantly decreased
- total SWD duration: significantly decreased

Reference: patent publication US20110094885A1, “Flexible Drug Delivery Chip, its Fabrication Method and Uses Thereof” (NATIONAL CHIAO TUNG UNIVERSITY, priority 2009, published 2011)
